Tests used:
[1] = molecular target: T1, ScDHOase (Saccharomyces cerevisiae, UniProt P20051); assay: rapid spectrophotometric DHOase enzyme assay (hydrolysis of DHO); type: biochemical
T1 construct: made in house; host or cells: E. coli BL21(DE3)
Experimental: PLU (50 μM) was included in the standard assay for analyzing the enzyme activity under different substrate concentrations. […] Data points are an average of three determinations within the 10% error.
(§1) A rapid spectrophotometric assay was used to determine the activity of DHOase. Briefly, the hydrolysis of DHO was measured at 25 °C as the decrease in absorbance at 230 nm. The purified DHOase was added to a 2 mL solution containing 0.5 mM DHO and 100 mM Tris–HCl at pH 8.0 to start the reaction. The extinction coefficient of DHO was 0.92 mM^−1·cm^−1 at 230 nm. The hydrolysis of DHO was monitored using a UV/Vis spectrophotometer (Hitachi U 3300; Hitachi High-Technologies, Tokyo, Japan). A unit of activity was defined as the amount of enzyme catalyzing the hydrolysis of 1 μmol DHO/min, and the specific activity was expressed in terms of units of activity per mg of enzyme. The kinetic parameters Km and Vmax were determined from a nonlinear plot by fitting the hydrolyzing rate from individual experiments to the Michaelis–Menten equation (Enzyme Kinetics module of Sigma-Plot; Systat Software, Chicago, IL, USA).

[2] = molecular target: T2, StDHOase (Salmonella typhimurium, UniProt P06204); assay: as above; type: biochemical, Salmonella enterica serovar Typhimurium LT2; conditions: PLU 200 μM
T2 construct: made in house; host or cells: E. coli BL21(DE3)
T2 sequence (P06204 whole entry): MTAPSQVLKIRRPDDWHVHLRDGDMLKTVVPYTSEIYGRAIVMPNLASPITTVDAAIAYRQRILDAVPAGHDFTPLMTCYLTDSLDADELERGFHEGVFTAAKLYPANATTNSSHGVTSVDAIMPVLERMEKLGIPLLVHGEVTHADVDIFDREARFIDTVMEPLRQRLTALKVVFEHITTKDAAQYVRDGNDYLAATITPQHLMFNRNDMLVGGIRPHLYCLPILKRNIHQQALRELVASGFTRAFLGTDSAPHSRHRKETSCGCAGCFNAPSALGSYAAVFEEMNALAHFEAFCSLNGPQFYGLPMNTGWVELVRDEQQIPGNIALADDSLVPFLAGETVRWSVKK
Experimental: as §1

[3] = molecular target: T3, KpDHOase (Klebsiella pneumoniae subsp. pneumoniae, UniProt A6T7D6); assay: as above; type: biochemical, Klebsiella pneumonia; conditions: PLU 200 μM
T3 construct: made in house; host or cells: E. coli BL21(DE3)
T3 sequence (A6T7D6 whole entry): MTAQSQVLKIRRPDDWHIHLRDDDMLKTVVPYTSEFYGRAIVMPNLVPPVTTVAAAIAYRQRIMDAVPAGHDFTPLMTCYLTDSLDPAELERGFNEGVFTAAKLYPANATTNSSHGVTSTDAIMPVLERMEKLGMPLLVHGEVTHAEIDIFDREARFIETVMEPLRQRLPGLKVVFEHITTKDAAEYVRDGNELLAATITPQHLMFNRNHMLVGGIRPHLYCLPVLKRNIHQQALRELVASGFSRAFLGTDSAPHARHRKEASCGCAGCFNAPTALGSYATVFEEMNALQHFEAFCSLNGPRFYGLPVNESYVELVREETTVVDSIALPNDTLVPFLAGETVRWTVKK
Experimental: as §1

[4] = in vitro; type: cell-based, mouse; conditions: mouse; PLU 2 μM, 4T1 cells; read-out: Death rate (cell mortality)
Experimental: (§2) The 4T1 cells (1 × 10^4) were incubated with PLU in a 100 μL volume. After 24 h, the anticancer potentiality was estimated.

[5] = system: 4T1 cells; assay: in vitro; type: cell-based, mouse; conditions: 10 μM PLU, 24 h, 4T1 cells
Experimental: as §2

[6] = system: 4T1 cells; assay: wound-healing assay; type: cell-based, mouse
Experimental: The wound-healing assay was performed to study whether PLU can inhibit 4T1 cell migration. Briefly, 4T1 cells were seeded in 24-well plates, incubated in serum-reduced medium for 6 h, wounded in a line across the well with a 200 μL pipette tip, and washed twice with the serum-reduced medium. After different treatments, cells were incubated for 24 h to allow migration.

[7] = system: Klebsiella pneumoniae; assay: bacterial growth inhibition; type: cell-based; conditions: 100 μM PLU added at 0.5 OD600, 37 °C
Experimental: (§3) Figure 8 Anticancer and antibacterial activities of PLU. (A) The trypan blue assay—4T1 cells incubated with PLU (10 μM). After 24 h, the anticancer potentiality was estimated. (B) The wound-healing assay—4T1 cells were seeded in 24-well plates. Cells were incubated with PLU (10 μM) for 24 h to allow migration. (C) Hoechst staining assay—an amount of 10 μM PLU-induced apoptosis with DNA fragmentation was observed. […] (E) Effects of PLU on cell survival, migration and proliferation, and nuclear condensation—a concentration of 10 μM PLU was effective for anti-4T1 cancer cells. (F) PLU inhibited bacterial growth—K. pneumoniae and S. enterica serovar Typhimurium LT2 cells were grown to 0.5 OD600 at 37 °C, and then PLU was added into the medium. […] PLU may inhibit the pyrimidine biosynthesis, resulting in its antibacterial activities.
(§4) Similar to cancer cells, bacterial cells are rapidly reproducible, and their growth might be suppressed by PLU. To test whether PLU could inhibit bacterial growth, we grew Klebsiella pneumoniae and S. enterica serovar Typhimurium LT2 cells to 0.5 OD600 at 37 °C, and then added PLU into the medium. […] Thus, PLU was also effective for antipathogen chemotherapies. PLU may inhibit pyrimidine biosynthesis, resulting in antibacterial activities.

[8] = system: S. enterica serovar Typhimurium LT2; assay: bacterial growth inhibition; type: cell-based; conditions: 100 μM PLU added at 0.5 OD600, 37 °C
Experimental: as §3, §4

[9] = molecular target: DHPase; set-up: method as in PMID 32147511; conditions: cited from earlier work

T1 sequence (P20051 whole entry): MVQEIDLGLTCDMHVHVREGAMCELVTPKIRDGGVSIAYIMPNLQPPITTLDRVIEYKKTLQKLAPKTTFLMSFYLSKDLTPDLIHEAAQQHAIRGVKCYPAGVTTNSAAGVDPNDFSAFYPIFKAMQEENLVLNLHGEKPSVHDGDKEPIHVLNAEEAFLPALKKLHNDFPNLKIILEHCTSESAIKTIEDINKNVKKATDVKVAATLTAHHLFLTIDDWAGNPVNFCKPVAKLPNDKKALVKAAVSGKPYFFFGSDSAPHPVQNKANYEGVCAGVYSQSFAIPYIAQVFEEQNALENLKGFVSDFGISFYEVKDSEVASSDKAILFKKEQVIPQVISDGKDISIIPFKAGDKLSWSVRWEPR

CC1=CC(=O)c2c(O)cccc2C1=O [PLU, plumbagin]
inhibition type (Lineweaver–Burk plot) ([1]; PLU 50 μM, different substrate concentrations): competitive inhibitor | Vmax of ScDHOase in the presence of PLU ([1]; PLU 50 μM, without PLU 69.9 ± 1.0): 64.1 ± 2.8 µmol/mg/min | decrease of the activity of ScDHOase ([1]; PLU 200 μM): 66% | decrease of the activity of StDHOase [2]: 71% | decrease of the activity of KpDHOase [3]: 69% | mortality at 24 h, 2 μM [4]: 8% | cell deaths [5]: 100% | inhibition at 10 µM ([6]; Mus musculus, 10 μM PLU, 24 h, read-out: inhibition of cell migration): 97% | Migration rate ([6]; PLU 2 μM): 84% | growth of K. pneumoniae [7]: significantly inhibited the growth | growth of S. enterica serovar Typhimurium LT2 [8]: significantly inhibited the growth | IC50 [9]: 58 µM

Source: article PMC8267945, “Plumbagin, a Natural Product with Potent Anticancer Activities, Binds to and Inhibits Dihydroorotase, a Key Enzyme in Pyrimidine Biosynthesis” (International Journal of Molecular Sciences, 2021)
